What all share (type): in vivo, rat
The test system of data set [1] is Male Fisher 344 rats. The data set is described as follows: Plasma MDA by GC/NICI-MS. The note with it: for MDA (by GC-M5): plasma. How it is done:
(§1) Animals and treatment protocol: Male Fisher 344 rats (260-280 g) obtained from Charles River Laboratories (Raleigh, N.C.) were used in all experiments. The animals were housed three to a cage. Autoclaved hardwood bedding was used in solid-bottom polycarbonate cages with filter tops. Animal rooms were maintained at 20-25° C. with 35-70% relative humidity with alternating 12-hour light and dark cycles. The rats had free access to deionized, reverse-osmosis-treated water and received autoclaved NIH 31 rodent chow (Zeigler Bros., Gardners, Pa.) ad libitum. For all experiments, rats were fasted overnight and then administered intraperitoneal injections of carbon tetrachloride in canola oil. Control rats received an equal volume of canola oil. Fasting continued throughout the experiment. Rats were anesthetized with Nembutal (0.1 ml/100 g body weight) and 5 ml blood was removed from the dorsal aorta proximal to its bifurcation into the common iliac arteries.
Indomethacin pretreatment: The indomethacin regimen used has been previously shown to inhibit COX activity in rats by 90% (dose of 5 mg/kg s.c. 24 hours, 12 hours, and 2 hours prior to the injection of CCl4) (Jackson, 1989, J. Pharmacol. Exp. Ther. 250: 9-21). An additional booster dose was injected 8 hours after the last injection of CCl4 for the measurements performed 16 hours after treatment with CCl4.
(§2) Carbon tetrachloride (CCL4) treatment: Animals from each of the three dose groups (Control-canola oil, 120 mg/kg CCl4 i.p. and 1200 mg/kg CCl4 i.p.) were investigated at three time points (2, 7, and 16 hours after CCl4 injection). Indomethacin-pretreated rats were also investigated at the same three time points, and the meclofenamic acid-pretreated rats were investigated at one time point (7 hours). Each group consisted of five rats for each analysis, except the meclofenamic acid pretreatment group which consisted of six rats. Animal treatment, sample preparation, assessment of liver histology and serum enzyme activities are described elsewhere (Kadiiska et al., 2000, Free Radic. Biol. Med. 28: 838-845; Jackson, 1989, J. Pharmacol. Exp. Ther. 250: 9-21) and were carried out at NIEHS, Research Triangle Park, N.C.
(§3) Plasma sample preparation: Blood (5 ml) was drawn through single draw Vacutainer® needles (21 Gauge) into open Vacutainer® blood collection tubes containing heparin. The tubes were gently inverted 2-3 times for mixing and immediately placed on ice. Blood was centrifuged (2,000 rpm for 10 minutes at 4° C.) no more than 30 minutes after collection, and the plasma was collected, frozen on dry ice and stored at −70° C.
Plasma MDA concentrations were also measured by using gas chromatography/negative ion chemical ionization mass spectroscopy (GC/NICI-MS) as described by Yeo et al. (Yeo et al., 1994, Anal. Biochem. 220: 391-396). The stable isotope internal standard [^2H2] MDA and an antioxidant (2,6-tert-butyl-4-methylphenol) were added to the plasma samples. The samples were then incubated at room temperature in 6.6 mol H2SO4 for 10 minutes to hydrolyze the aldehydes from the proteins. Plasma MDA was converted to a stable pentafluorophenyl hydrazine derivative which was quantified by using the GC-MS in the negative chemical ionization mode. The assay was performed at Children's Hospital Oakland Research Institute, Oakland, Calif.

Data set [2] deals with Male Fisher 344 rats. The data set is described as follows: Comet assay of blood leucocyte DNA. The note with it: CCl4 120 and 1200 mg/kg; 2, 7, 16 h. Here is the method:
as §1
Carbon tetrachloride (CCL4) treatment: Animals from each of the three dose groups (Control-canola oil, 120 mg/kg CCl4 i.p. and 1200 mg/kg CCl4 i.p.) were investigated at three time points (2, 7, and 16 hours after CCl4 injection). Indomethacin-pretreated rats were also investigated at the same three time points, and the meclofenamic acid-pretreated rats were investigated at one time point (7 hours). […]

Data set [3] deals with Male Fisher 344 rats. Description: Plasma lipid hydroperoxides (iodometric assay) after CCl4. How it is done: as §1, §2, §3
The second assay of plasma lipid hydroperoxides used iodometric spectrophotometric determination. Concentrations of lipid hydroperoxides were measured according to a slightly modified procedure of Cramer et al. (1991, Anal. Biochem. 193: 204-211) where plasma was treated to enzymatically hydrolyze lipids, and nonesterified fatty acid peroxides were then extracted with ethyl acetate. Extracted lipids were reacted with potassium iodide in citric acid and methylene chloride, and the resulting triiodide ion (I3^−) was measured spectrophotometrically. All measurements were done at the United States Environmental Protection Agency (EPA), Research Triangle Park, N.C.

Data set [4] relates to Male Fisher 344 rats. Description: Plasma TBARS after CCl4. Here is the method: as §1, §2, §3
Malondialdehyde (MDA) in plasma was measured using several different assays. In one assay in Experimental Example 1, free MDA and other thiobarbituric acid-reactive substances (TBARS) (MDA-protein adducts) were measured with the thiobarbituric acid (TBA assay) (Draper et al., 1993, Free Radic. Biol. Med. 15: 353-363). One ml of biological sample was combined with 2.0 ml of 1:1 TCA/TBA (30% trichloracetic acid and 0.67% thiobarbituric acid) in the presence of 200 mM butylated hydroxytoluene (BHT) for spectrophotometric readings (Porter et al., 1976, Biochim. Biophys. ACTA 441: 506-512). The incubation mixture was heated for 20 minutes in boiling water. The samples were centrifuged (2,000 rpm for 10 minutes at 4° C.), and the TBARS concentration was determined based on the absorbance at 532 nm measured with a Beckman DU-7 spectrophotometer at room temperature. Measurements were done at NIEHS, Research Triangle Park, N.C. in the case of Experimental Example 1.

Structures are written as SMILES.

For the compound `ClC(Cl)(Cl)Cl` [CCl4, Carbon tetrachloride], in the data set with Male Fisher 344 rats [1] (7 hours after CCl4), the “increase of plasma MDA (GC/NICI-MS)” value came to 3 fold. The “MDA (by GC-M5)” value with Male Fisher 344 rats [1] (CCl4 120 mg/kg i.p., 2 h) is 0.41 µM; with Male Fisher 344 rats [1] (CCl4 120 mg/kg i.p., 7 h), 0.35 µM; with Male Fisher 344 rats [1] (CCl4 120 mg/kg i.p., 16 h), 0.22 µM; with Male Fisher 344 rats [1] (CCl4 1200 mg/kg i.p., 2 h), 1.35 µM; in the data set on Male Fisher 344 rats [1] (CCl4 1200 mg/kg i.p., 7 h), 0.36 µM; in the data set on Male Fisher 344 rats [1] (CCl4 1200 mg/kg i.p., 16 h) it was 0.23 µM. The “increase of plasma MDA compared to controls (GC/NICI-MS)” value with Male Fisher 344 rats [1] (higher dose of CCl4, 2 hours) came to 12 fold. The “Comet assay: % migrated DNA, tail length, tail moment” value in the data set with Male Fisher 344 rats [2] was “statistically significant increase only at the low dose of CCl4 at 16 hours”. In addition, the “LOOH (iodometric assay)” value in the data set on Male Fisher 344 rats [3] (CCl4 120 mg/kg i.p., 2 h) was 0.30 µM; in the data set on Male Fisher 344 rats [3] (CCl4 120 mg/kg i.p., 7 h) it was 0.30 µM; with Male Fisher 344 rats [3] (CCl4 120 mg/kg i.p., 16 h) it was 0.56 µM; in the data set on Male Fisher 344 rats [3] (CCl4 1200 mg/kg i.p., 2 h) it was 1.42 µM; in the data set on Male Fisher 344 rats [3] (CCl4 1200 mg/kg i.p., 7 h) it was 0.40 µM; in the data set on Male Fisher 344 rats [3] (CCl4 1200 mg/kg i.p., 16 h) it was 0.39 µM. The TBARS with Male Fisher 344 rats [4] (CCl4 120 mg/kg i.p., 2 h) came to 4.1 µM; with Male Fisher 344 rats [4] (CCl4 120 mg/kg i.p., 7 h), 10.4 µM; in the data set on Male Fisher 344 rats [4] (CCl4 120 mg/kg i.p., 16 h), 13.0 µM; in the data set on Male Fisher 344 rats [4] (CCl4 1200 mg/kg i.p., 2 h), 4.2 µM; in the data set with Male Fisher 344 rats [4] (CCl4 1200 mg/kg i.p., 7 h) it was 9.4 µM; with Male Fisher 344 rats [4] (CCl4 1200 mg/kg i.p., 16 h), 10.7 µM.

These data come from US7833795B2, “Assessment of cardiovascular risk using isoprostane biomarkers and COX-2 selective inhibitors” (The Trustees of the University of Pennsylvania, priority 2004, dated 2010).
